Where “and” joins values, the source holds several entries; their conditions need not be identical. Equal entries are not always repeated.
Columns and labels:
[1] = test system: Ae. Aegypti, Isla Mujer strain (metabolically pyrethroid resistant); assay: Contact irritancy on metabolically resistant mosquitoes (Example 5); assay type: in vivo
Protocol: (§1) Four compounds of formula (I) were tested for contact irritancy (i.e., movement away from the source after physical contact) at low doses on female Aedes aegypti (Thailand strain) mosquitoes. The contact irritant response was determined by use of the contact irritant assay disclosed by Grieco et al. in “A New Classification System for the Actions of IRS Chemicals Traditionally Used for Malaria Control,” Plos One, Issue 8 (2007) (available at www.plosone.org). The assay used was a cylindrical assembly that included a metal treatment end to which 10 mosquitoes were introduced and a clear receiving chamber. The treatment end included a netting strip (nylon organdy) that was treated with the insecticide of interest at the relevant dose. A butterfly valve separated the treatment end from the remainder of the assembly.
(§2) Each composition was applied to the netting strip at a varied dose via a 1.5 ml acetone solution. Four (4) treatment concentrations were used—0.0025 nmol/cm^2, 0.025 nmol/cm^2, 0.25 nmol/cm^2 and 2.5 nmol/cm^2. Netting was allowed to dry for 15 minutes prior to placement in the cylinder. Control assays were performed with netting treated with acetone only.
(§3) For each run, 10 mosquitoes were transferred into the treatment end of the assembly and, after 30 seconds, the butterfly valve was opened. The valve was closed after 10 minutes and the number of mosquitoes in the clear end (i.e., the number of escaped mosquitoes) was tested.
(§4) The contact irritancy protocol of Example 2 was used to determine contact irritancy against mosquitoes (Ae. Aegypti) that had acquired metabolic resistance against pyrethroids. Alphacypermethrin and transfluthrin were also tested. Three mosquito strains were tested—Houston which is pyrethroid susceptible, That which is pyrethroid tolerant and Isla Mujer which is metabolically pyrethroid resistant.

[2] = test system: Susceptible An. Gambiae; assay: Bottle toxicity assay (Example 8), susceptible mosquitoes; assay type: in vivo, Anopheles gambiae
Protocol: Several compounds were tested to determine their toxic effect on knockdown resistant Anopheles gambiae mosquitoes and susceptible mosquitoes. Acetone and different amounts of pesticides were added to 250 ml bottles. In one bottle, only acetone was added as a control. The bottles were rotated in all directions while uncapped until all acetone was evaporated and the insecticide was coated onto the inside surfaces of the bottle. A number of knockdown resistant Anopheles gambiae mosquitoes were added to the bottle. The number of dead mosquitoes was recorded at 1 hour and 24 hours.

[3] = test system: mosquitoes (Ae. aegypti); assay: Compound residual life: contact irritancy (Example 10); assay type: in vivo; settings: for Number escaping (mean +/- SE), treated: 10 mosquitoes per run, 6 runs per net sample
Protocol: as §1
Contact irritancy tests (blind testing) were performed for several samples of compounds 1405 and 1406 at 0 weeks, 2 weeks, 4 weeks, 8 weeks and 12 weeks to determine the residual contact irritancy of the compounds on mosquitoes (Ae. aegypti). Between testing, the nets were hung in the lab and held at a temperature of 27-29° C. and 56-67% relative humidity. Each run was performed 6 times for each sample with 10 mosquitoes used in each run (60 mosquitoes total).

[4] = test system: mosquitoes (Ae. aegypti); assay: Compound residual life: spatial repellency (Example 11); assay type: in vivo; settings: 12 week test period
Protocol: The four compounds of formula I described in Example 2 were tested for spatial repellency (directed movement away from the chemical source without the insect making physical contact with the treated surface) at low doses on female Aedes aegypti (Thailand strain) mosquitoes. The spatial repellency response was determined by use of the spatial repellency assay disclosed by Grieco et al. in “A New Classification System for the Actions of IRS Chemicals Traditionally Used for Malaria Control” in Plos One, Issue 8 (2007) (available at www.plosone.org) which is incorporated herein by reference for all relevant and consistent purposes. The assay used was a cylindrical assembly that included a treatment chamber at one end and a control chamber at the other end. The treatment chamber included a netting strip (nylon organdy) that was treated with the insecticide of interest at the relevant dose. The treatment chamber and control chamber were connected by a clear cylinder and were separated from the clear cylinder by butterfly valves. Twenty (20) mosquitoes were introduced into the clear central chamber and the butterfly valves were opened after 30 seconds. After 10 minutes, the valves were closed and the number of mosquitoes in each chamber was counted. […]

[5] = test system: Ae. Aegypti, That strain (pyrethroid tolerant); assay: Contact irritancy on pyrethroid tolerant mosquitoes (Example 5); assay type: in vivo
Protocol: as §1, §2, §3, §4

[6] = test system: Ae. aegypti mosquitoes; assay: Compound residual life: spatial repellency (Example 9); assay type: in vivo
Protocol: (§5) The four compounds of formula I described in Example 2 were tested for spatial repellency (directed movement away from the chemical source without the insect making physical contact with the treated surface) at low doses on female Aedes aegypti (Thailand strain) mosquitoes. The spatial repellency response was determined by use of the spatial repellency assay disclosed by Grieco et al. in “A New Classification System for the Actions of IRS Chemicals Traditionally Used for Malaria Control” in Plos One, Issue 8 (2007) (available at www.plosone.org) which is incorporated herein by reference for all relevant and consistent purposes. The assay used was a cylindrical assembly that included a treatment chamber at one end and a control chamber at the other end. The treatment chamber included a netting strip (nylon organdy) that was treated with the insecticide of interest at the relevant dose. The treatment chamber and control chamber were connected by a clear cylinder and were separated from the clear cylinder by butterfly valves. Twenty (20) mosquitoes were introduced into the clear central chamber and the butterfly valves were opened after 30 seconds. After 10 minutes, the valves were closed and the number of mosquitoes in each chamber was counted.
The spatial repellency assay of Example 3 was used to determine the residual life of compound 1405 on Ae. aegypti mosquitoes. Compound 1405 (neat, suspended in acetone) was applied by pipette to the netting material and the netting material was maintained at room temperature. The assay was performed at 0, 24 and 48 hours.
Nets were treated and tested at times 0 hour, 24 hour and 48 hour. The nets were held at room temperature between tests. The spatial activity index (“SAI” which varies from −1 to 1 with zero (0) indicating no response) and spatial repellency (SR) were determined. SAI is the measure of the proportion of females in the control chamber over the treated chamber after correcting for the proportion of females in the control chamber.

[7] = test system: female Aedes aegypti (Thailand strain) mosquitoes; assay: Spatial repellency assay on mosquitoes (Example 3); assay type: in vivo; settings: netting treated at 0.0025-2.5 nmol/cm^2
Protocol: as §5
The compositions were applied to the net strips by the same methods and at the same concentrations as described in Example 2 above. […]

[8] = Dose 0.025 μg/bottle, Strain Tested F122, Time 1 hour
[9] = Dose 0.025 μg/bottle, Strain Tested F122, Time 24 hours
[10] = Dose 0.025 μg/bottle, Strain Tested F123, Time 1 hour
[11] = Dose 0.025 μg/bottle, Strain Tested F123, Time 24 hours
[12] = Dose 0.25 μg/bottle, Strain Tested F122, Time 1 hour
[13] = Dose 0.25 μg/bottle, Strain Tested F122, Time 24 hours
[14] = Dose 0.25 μg/bottle, Strain Tested F123, Time 1 hour
[15] = Dose 0.25 μg/bottle, Strain Tested F123, Time 24 hours
[16] = Dose 2.5 μg/bottle, Strain Tested F122, Time 1 hour
[17] = Dose 2.5 μg/bottle, Strain Tested F122, Time 24 hours
[18] = Dose 2.5 μg/bottle, Strain Tested F123, Time 1 hour
[19] = Dose 2.5 μg/bottle, Strain Tested F123, Time 24 hours
[20] = Dose 2.5, Time 0 hr after net treatment
[21] = Dose 2.5, Time 24 hr after net treatment
[22] = Dose 25, Time 0 hr after net treatment
[23] = Dose 25, Time 24 hr after net treatment
[24] = Dose 25, Time 48 hr after net treatment

| Structure (SMILES) | contact irritancy, resistant strain (FIG. 4) [1] | Susceptible An. Gambiae (% dead (SE)) [2, 8] [%] | Susceptible An. Gambiae (% dead (SE)) [2, 9] [%] | Susceptible An. Gambiae (% dead (SE)) [2, 10] [%] | Susceptible An. Gambiae (% dead (SE)) [2, 11] [%] | Susceptible An. Gambiae (% dead (SE)) [2, 12] [%] | Susceptible An. Gambiae (% dead (SE)) [2, 13] [%] | Susceptible An. Gambiae (% dead (SE)) [2, 14] [%] | Susceptible An. Gambiae (% dead (SE)) [2, 15] [%] | Susceptible An. Gambiae (% dead (SE)) [2, 16] [%] | Susceptible An. Gambiae (% dead (SE)) [2, 17] [%] | Susceptible An. Gambiae (% dead (SE)) [2, 18] [%] | Susceptible An. Gambiae (% dead (SE)) [2, 19] [%] | Percent escaping (mean ± SE) ([3]; Time 0 week) | Percent escaping (mean ± SE) ([3]; Time 2 week) | Number escaping (mean +/- SE), treated ([3]; Time 2 week) | contact irritancy, tolerant strain (FIG. 4) [5] | further results |
| --- | --- | --- | --- | --- | --- | --- | --- | --- | --- | --- | --- | --- | --- | --- | --- | --- | --- | --- |
| CC1(C)C(C=C(Cl)Cl)C1C(=O)OCc1ccc(F)c(C(F)(F)F)c1F (stereo not shown) [Compound 1406] | effective in resistant strains | 100 | 100 | 100 | 100 | 100 | 100 | 100 | 100 | 100 | 100 | 100 | 100 | 80 ± 2% and 87 ± 4% and 87 ± 7% and 87 ± 10% | 57 ± 4% and 63 ± 5% and 58 ± 7% and 62 ± 8% | 2.5 ± 0.8 and 2.7 ± 0.3 and 2.2 ± 0.2 | contact irritants for tolerant strains | residual contact irritant activity (in words) ([3]; 12 week test period, nets held at 27-29° C.): the most residual with the highest level of activity out to 12 weeks; Number escaping (mean +/- SE), treated ([3]; Time 0 week): 3.8 ± 0.5 and 3.2 ± 0.5 and 3.2 ± 1.2 and 4.0 ± 1.0; Percent escaping (mean ± SE) ([3]; Time 4 week): 50 ± 10% and 47 ± 4% and 45 ± 4% and 35 ± 8%; Number escaping (mean +/- SE), treated ([3]; Time 4 week): 2.0 ± 0.4 and 2.3 ± 0.5 and 2.5 ± 0.4 and 2.5 ± 0.8; Percent escaping (mean ± SE) ([3]; Time 8 week): 40 ± 10% and 37 ± 2% and 27 ± 7% and 28 ± 9%; Percent escaping (mean ± SE) ([3]; Time 12 week): 37 ± 4% and 31 ± 4% and 22 ± 6% and 19 ± 5%; residual spatial repellent activity (in words) [4]: appeared to be the more residual of the two compounds tested |
| CC1(C)C(C=C(Cl)C(F)(F)F)C1C(=O)OCc1ccc(F)c(C(F)(F)F)c1F (stereo not shown) [Compound 1405] | effective in resistant strains | 100 | 100 | 100 | 100 | 100 | 100 | 100 | 100 | 100 | 100 | 100 | 100 | 90 ± 5% and 80 ± 5% and 85 ± 4% and 88 ± 5% | 47 ± 6% and 42 ± 7% and 47 ± 3% and 47 ± 4% | 1.7 ± 0.6 and 2.2 ± 0.7 and 1.7 ± 0.4 | contact irritants for tolerant strains | Susceptible An. Gambiae (% dead (SE)) ([2]; Dose 0.00025 μg/bottle, Strain Tested F123, Time 1 hour): 100%; Susceptible An. Gambiae (% dead (SE)) ([2]; Dose 0.00025 μg/bottle, Strain Tested F123, Time 24 hours): 87%; Susceptible An. Gambiae (% dead (SE)) ([2]; Dose 0.0025 μg/bottle, Strain Tested F122, Time 1 hour): 100%; Susceptible An. Gambiae (% dead (SE)) ([2]; Dose 0.0025 μg/bottle, Strain Tested F122, Time 24 hours): 95%; Susceptible An. Gambiae (% dead (SE)) ([2]; Dose 0.0025 μg/bottle, Strain Tested F123, Time 1 hour): 100%; Susceptible An. Gambiae (% dead (SE)) ([2]; Dose 0.0025 μg/bottle, Strain Tested F123, Time 24 hours): 100%; Susceptible An. Gambiae (% dead (SE)) ([2]; Dose 25 μg/bottle, Strain Tested F123, Time 1 hour): 100%; Susceptible An. Gambiae (% dead (SE)) ([2]; Dose 25 μg/bottle, Strain Tested F123, Time 24 hours): 100%; Number escaping (mean +/- SE), treated ([3]; Time 8 week): 1.8 ± 0.5 and 2.2 ± 0.5 and 1.8 ± 0.9 and 1.5 ± 0.6; SAI (SE) (spatial activity index, -1 to 1) [6, 20]: 0.5(0.1); SR (spatial repellency) [6, 20]: 21.5; SAI (SE) (spatial activity index, -1 to 1) [6, 21]: 0.3(0.1); SR (spatial repellency) [6, 21]: 18; SAI (SE) (spatial activity index, -1 to 1) [6, 22]: 0.3(0.1); SR (spatial repellency) [6, 22]: 21.5; SAI (SE) (spatial activity index, -1 to 1) [6, 23]: 0.5(0.1); SR (spatial repellency) [6, 23]: 22.5; SAI (SE) (spatial activity index, -1 to 1) [6, 24]: 0.4(0.1); SR (spatial repellency) [6, 24]: 22.5; spatial repellency, dose compared with DDT (FIG. 2) [7]: showed repellency at a lower dose than DDT |
